What all share (assay): relative viability (nuclei count vs DMSO), 5 days (fraction); higher = more cells survive
Compound in the test “RAF265 + Olaparib”: Cn1c(Nc2ccc(C(F)(F)F)cc2)nc2cc(Oc3ccnc(-c4ncc(C(F)(F)F)[nH]4)c3)ccc21 [RAF265] + O=C(c1cc(Cc2n[nH]c(=O)c3ccccc23)ccc1F)N1CCN(C(=O)C2CC2)CC1 [Olaparib] (partner 8 µM)
In outline: (§1)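 Lung cancer cell lines were seeded in 1536-well plates and dosed by pin tool the next day, with either a single drug or a fixed anchor-drug dose combined with five library-drug doses (not always all listed) spaced in √10 steps. Five days later, one step fixed the cells and stained their nuclei (final 0.05% Triton X-100, 1% formaldehyde, 1 ug/ml Hoechst), and nuclei were counted on 4× images. Relative viability is the nuclei count in treated wells divided by the count in vehicle wells, and each value is the median of duplicate plates.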

Compound in the test “Doramapimod + Trametinib”: Cc1ccc(-n2nc(C(C)(C)C)cc2NC(=O)Nc2ccc(OCCN3CCOCC3)c3ccccc23)cc1 [Doramapimod] + CC(=O)Nc1cccc(-n2c(=O)n(C3CC3)c(=O)c3c(Nc4ccc(I)cc4F)n(C)c(=O)c(C)c32)c1 [Trametinib] (partner 0.02 µM)
In outline: as §1

Compound in the test “RAF265 + AZD7762”: Cn1c(Nc2ccc(C(F)(F)F)cc2)nc2cc(Oc3ccnc(-c4ncc(C(F)(F)F)[nH]4)c3)ccc21 [RAF265] + NC(=O)Nc1cc(-c2cccc(F)c2)sc1C(=O)N[C@H]1CCCNC1 [AZD7762] (partner 0.2 µM)
In outline:
as §1

Compound in the test “IPA-3 + Trametinib”: C1=CC=C2C(=C1)C=CC(=C2SSC3=C(C=CC4=CC=CC=C43)O)O [IPA-3] + CC(=O)Nc1cccc(-n2c(=O)n(C3CC3)c(=O)c3c(Nc4ccc(I)cc4F)n(C)c(=O)c(C)c32)c1 [Trametinib] (partner 0.02 µM)
The method in brief: as §1

Consider NCI-H2342, for which the relative viability with RAF265 + Olaparib (first compound 0.01 µM) turned out to be 0.377; with RAF265 + Olaparib (first compound 0.03162 µM), 0.37; with RAF265 + Olaparib (first compound 0.1 µM), 0.468; with RAF265 + Olaparib (first compound 0.3162 µM) it was 0.395; with RAF265 + Olaparib (first compound 1 µM), 0.348; with Doramapimod + Trametinib (first compound 0.02 µM), 0.838. The relative viability with Doramapimod + Trametinib (first compound 0.06325 µM) amounted to 0.844; with Doramapimod + Trametinib (first compound 0.2 µM) it was 0.754; in the test with Doramapimod + Trametinib (first compound 0.6325 µM) it was 0.817; in the test with Doramapimod + Trametinib (first compound 2 µM) it was 0.847; with RAF265 + AZD7762 (first compound 0.01 µM), 0.507; with RAF265 + AZD7762 (first compound 0.03162 µM) it was 0.558. Besides, the relative viability came to 0.539 with RAF265 + AZD7762 (first compound 0.1 µM); 0.498 with RAF265 + AZD7762 (first compound 0.3162 µM); 0.474 in the test with RAF265 + AZD7762 (first compound 1 µM); 0.74 in the test with IPA-3 + Trametinib (first compound 0.2 µM); 0.734 in the test with IPA-3 + Trametinib (first compound 0.6325 µM); 0.955 with IPA-3 + Trametinib (first compound 2 µM). The values for the relative viability in the test with IPA-3 + Trametinib (first compound 6.325 µM) and in the test with IPA-3 + Trametinib (first compound 20 µM) were 0.872 and 0.937, respectively.
With NCI-H2347, the relative viability amounted to 0.644 with RAF265 + Olaparib (first compound 0.01 µM); 0.606 with RAF265 + Olaparib (first compound 0.03162 µM); 0.57 with RAF265 + Olaparib (first compound 0.1 µM); 0.523 in the test with RAF265 + Olaparib (first compound 0.3162 µM); 0.384 in the test with RAF265 + Olaparib (first compound 1 µM); 0.281 with Doramapimod + Trametinib (first compound 0.02 µM). Further, the relative viability with Doramapimod + Trametinib (first compound 0.06325 µM) amounted to 0.23; in the test with Doramapimod + Trametinib (first compound 0.2 µM) it was 0.249; in the test with Doramapimod + Trametinib (first compound 0.6325 µM), 0.26; with Doramapimod + Trametinib (first compound 2 µM) it was 0.261; with RAF265 + AZD7762 (first compound 0.01 µM), 0.74; with RAF265 + AZD7762 (first compound 0.03162 µM), 0.7. Moreover, the relative viability with RAF265 + AZD7762 (first compound 0.1 µM) was 0.832; with RAF265 + AZD7762 (first compound 0.3162 µM), 0.46; with RAF265 + AZD7762 (first compound 1 µM) it was 0.22; with IPA-3 + Trametinib (first compound 0.2 µM), 0.278; with IPA-3 + Trametinib (first compound 0.6325 µM), 0.276; with IPA-3 + Trametinib (first compound 2 µM) it was 0.286. In addition, the results for the relative viability with IPA-3 + Trametinib (first compound 6.325 µM) and with IPA-3 + Trametinib (first compound 20 µM) were 0.268 and 0.281, respectively.
With NCI-H2405, the relative viability worked out at 0.96 in the test with RAF265 + Olaparib (first compound 0.01 µM); 0.88 with RAF265 + Olaparib (first compound 0.03162 µM); 0.834 with RAF265 + Olaparib (first compound 0.1 µM); 0.838 with RAF265 + Olaparib (first compound 0.3162 µM); 0.514 in the test with RAF265 + Olaparib (first compound 1 µM); 0.613 with Doramapimod + Trametinib (first compound 0.02 µM). In addition, the relative viability with Doramapimod + Trametinib (first compound 0.06325 µM) was 0.618; in the test with Doramapimod + Trametinib (first compound 0.2 µM) it was 0.612; in the test with Doramapimod + Trametinib (first compound 0.6325 µM), 0.705; with Doramapimod + Trametinib (first compound 2 µM), 0.581; with RAF265 + AZD7762 (first compound 0.01 µM), 0.849; with RAF265 + AZD7762 (first compound 0.03162 µM) it was 0.723. Further, the relative viability with RAF265 + AZD7762 (first compound 0.1 µM) came to 0.634; with RAF265 + AZD7762 (first compound 0.3162 µM), 0.549; in the test with RAF265 + AZD7762 (first compound 1 µM), 0.326; with IPA-3 + Trametinib (first compound 0.2 µM) it was 0.683; with IPA-3 + Trametinib (first compound 0.6325 µM), 0.639; with IPA-3 + Trametinib (first compound 2 µM), 0.511. The relative viability with IPA-3 + Trametinib (first compound 6.325 µM) was 0.628; in the test with IPA-3 + Trametinib (first compound 20 µM), 0.81.
As to NCI-H3122, the relative viability is 0.609 with RAF265 + Olaparib (first compound 0.01 µM); 0.63 in the test with RAF265 + Olaparib (first compound 0.03162 µM); 0.631 in the test with RAF265 + Olaparib (first compound 0.1 µM); 0.622 in the test with RAF265 + Olaparib (first compound 0.3162 µM); 0.611 with RAF265 + Olaparib (first compound 1 µM); 0.26 with Doramapimod + Trametinib (first compound 0.02 µM). The relative viability with Doramapimod + Trametinib (first compound 0.06325 µM) was determined as 0.206; with Doramapimod + Trametinib (first compound 0.2 µM), 0.216; with Doramapimod + Trametinib (first compound 0.6325 µM), 0.219; in the test with Doramapimod + Trametinib (first compound 2 µM) it was 0.279; with RAF265 + AZD7762 (first compound 0.01 µM) it was 1.03; with RAF265 + AZD7762 (first compound 0.03162 µM), 1.17. Besides, the relative viability with RAF265 + AZD7762 (first compound 0.1 µM) was found to be 1.02; in the test with RAF265 + AZD7762 (first compound 0.3162 µM) it was 0.949; with RAF265 + AZD7762 (first compound 1 µM), 0.862; in the test with IPA-3 + Trametinib (first compound 0.2 µM), 0.294; in the test with IPA-3 + Trametinib (first compound 0.6325 µM) it was 0.227; with IPA-3 + Trametinib (first compound 2 µM), 0.262. Besides, the relative viability was found to be 0.255 with IPA-3 + Trametinib (first compound 6.325 µM) and 0.216 with IPA-3 + Trametinib (first compound 20 µM).

(Values after the supplement of paper PMC10307832.)
